Results on 18 compounds are retold here after patent US9365583B2, “Substituted pyrazoles and uses thereof” (Genentech, Inc., priority 2013, dated 2016).

For the assay, the target named is T1, N-terminally GST-tagged DLK (catalytic domain amino acid 1-520) (Homo sapiens, UniProt Q12852).
T1 construct: N-terminally GST-tagged DLK (catalytic domain amino acid 1-520); purchased Carna Bioscience
T1 sequence (Q12852 1-520): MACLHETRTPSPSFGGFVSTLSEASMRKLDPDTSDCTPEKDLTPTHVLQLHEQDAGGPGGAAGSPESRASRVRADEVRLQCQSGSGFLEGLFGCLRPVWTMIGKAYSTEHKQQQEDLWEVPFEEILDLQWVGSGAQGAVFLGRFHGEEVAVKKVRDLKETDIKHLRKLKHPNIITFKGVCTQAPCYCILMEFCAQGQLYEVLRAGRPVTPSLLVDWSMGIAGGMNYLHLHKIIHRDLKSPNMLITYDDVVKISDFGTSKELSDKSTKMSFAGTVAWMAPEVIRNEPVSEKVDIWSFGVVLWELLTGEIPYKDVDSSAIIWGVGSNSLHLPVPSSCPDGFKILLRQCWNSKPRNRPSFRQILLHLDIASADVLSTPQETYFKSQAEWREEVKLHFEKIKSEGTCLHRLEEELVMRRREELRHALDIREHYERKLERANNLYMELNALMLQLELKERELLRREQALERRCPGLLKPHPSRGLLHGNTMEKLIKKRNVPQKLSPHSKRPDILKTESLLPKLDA
Nature of the assay: DLK TR-FRET inhibition assay. The assay is classed as biochemical. The conditions noted are these: 5 nM GST-DLK, 40 nM HIS-MKK4 K131M substrate, 30 μM ATP, 60 minutes at ambient temperature. An outline of the steps:
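Phosphorylated MKK4 was quantified by TR-FRET (Eu-labelled anti-phospho-MKK4, D2 anti-HIS; 3 h, 665 and 615 nm emission) after EDTA quench. Reactions held 5 nM GST-tagged DLK catalytic domain (1-520), 40 nM HIS-MKK4 K131M substrate, 30 μM ATP and compound (3-fold series from 20 uM), 60 min, room temperature, pH 7.5.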
On to `CC(C)n1nc(-c2cnc(N)c(C(F)(F)F)c2)cc1[C@H]1[C@@H]2C[C@@H](N3CCCC3=O)C[C@@H]21` [compound 44, 1-((1R,3s,5S,6r)-6-(3-(6-amino-5-(trifluoromethyl)pyridin-3-yl)-1-isopropyl-1H-pyrazol-5-yl)bicyclo[3.1.0]hexan-3-yl)pyrrolidin-2-one], for which the Ki stood at 8.2 nM.
The value for `COCCN1CC[C@@]12C[C@@H]1[C@H](C2)[C@H]1c1cc(-c2cnc(N)c(OC(F)(F)F)c2)nn1C(C)C` [compound 146, 5-(1-isopropyl-5-((1′R,2r,5′S,6′r)-1-(2-methoxyethyl)spiro[azetidine-2,3′-bicyclo[3.1.0]hexan]-6-yl)-1H-pyrazol-3-yl)-3-(trifluoro-methoxy)pyridin-2-amine] was 4.3 nM; that for `CC(C)n1nc(-c2cnc(N)c(OC(F)(F)F)c2)cc1[C@H]1[C@@H]2C[C@H](N3C[C@@H]4C[C@H]3CO4)C[C@@H]21` [compound 71, 5-(5-((1R,3r,5S,6S)-3-((1S,4S)-2-oxa-5-azabicyclo[2.2.1]heptan-5-yl)bicyclo[3.1.0]hexan-6-yl)-1-isopropyl-1H-pyrazol-3-yl)-3-(trifluoromethoxy)pyridin-2-amine] was 3.62 nM.
Regarding `CC(C)n1nc(-c2cnc(N)c(OC(F)F)c2)cc1[C@H]1[C@@H]2C[C@@H](N3CCOCC(F)(F)C3)C[C@@H]21` [compound 183, 5-(5-((1R,3s,5S,6r)-3-(6,6-difluoro-1,4-oxazepan-4-yl)bicyclo [3.1.0]hexan-6-yl)-1-isopropyl-1H-pyrazol-3-yl)-3-(difluoro-methoxy)pyridin-2-amine], the Ki turned out to be 4.5 nM.
The result for `CC(C)n1nc(-c2cnc3cnn([C@@H](C)c4ccccn4)c3c2)cc1[C@H]1[C@@H]2C[C@H](N3CCOCC3)C[C@@H]21` [compound 34, 4-((1R,3S,5S,6r)-6-(1-isopropyl-3-(1-((S)-1-(pyridin-2-yl)ethyl)-1H-pyrazolo[4,3-b]pyridin-6-yl)-1H-pyrazol-5-yl)bicyclo[3.1.0]hexan-3-yl)morpholine] reads 4.19 nM.
On to `CC(C)n1nc(-c2cnc(N)c(OC(F)F)c2)cc1[C@H]1[C@@H]2CC(F)(CN(C)C)C[C@@H]21` (mixture of isomers) [compound 178, 3-(difluoromethoxy)-5-(5-((1R, 5S,6r)-3-((dimethylamino)methyl)-3-fluorobicyclo[3.1.0]hexan-6-yl)-1-isopropyl-1H-pyrazol-3-yl)pyridin-2-amine], for which affinity was put at a Ki of 2.1 nM.
For the compound `CC(C)n1nc(-c2cnc(N)c(C(F)(F)F)c2)cc1[C@H]1[C@@H]2C[C@@H](N3CC4(CCCO4)C3)C[C@@H]21` [compound 222, 5-(5-((1R,3s,5S,6r)-3-(5-oxa-2-azaspiro[3.4]octan-2-yl)bicyclo [3.1.0]hexan-6-yl)-1-isopropyl-1H-pyrazol-3-yl)-3-(trifluoromethyl) pyridin-2-amine], the Ki came to 2.7 nM.
On to `CC(C)n1nc(-c2cnc(N)c(OC(F)F)c2)cc1[C@H]1[C@@H]2C[C@@H](N3CCCOCC3)C[C@@H]21` [compound 87, 5-(5-((1R,3s,5S,6r)-3-(1,4-oxazepan-4-yl)bicyclo[3.1.0]hexan-6-yl)-1-isopropyl-1H-pyrazol-3-yl)-3-(difluoromethoxy)pyridin-2-amine], for which the Ki was determined as 0.64 nM.
On to `CC(C)n1nc(-c2cnc3ccn([C@@H](C)c4ccccn4)c3c2)cc1[C@H]1[C@@H]2C[C@H](N3CCOCC3)C[C@@H]21` [compound 27, 4-((1R,3S,5S,6r)-6-(1-isopropyl-3-(1-((S)-1-(pyridin-2-yl)ethyl)-1H-pyrrolo[3,2-b]pyridin-6-yl)-1H-pyrazol-5-yl)bicyclo[3.1.0]hexan-3-yl)morpholine], for which the Ki worked out at 0.14 nM.
With `Nc1ncc(-c2cc([C@H]3[C@@H]4C[C@@H](N5CCOCC5)C[C@@H]43)n(CC3CC3)n2)cc1OC(F)F` [compound 279, 5-(1-(cyclopropylmethyl)-5-((1R,3s,5S,6r)-3-morpholinobicyclo [3.1.0]hexan-6-yl)-1H-pyrazol-3-yl)-3-(difluoromethoxy)pyridin-2-amine], the Ki is 1.6 nM.
On to `COC1CN([C@H]2C[C@@H]3[C@H](C2)[C@H]3c2cc(-c3cnc(N)c(C(F)(F)F)c3)nn2CC(F)F)C1` [compound 144, 5-(1-(2,2-difluoroethyl)-5-((1R,3r,5S,6r)-3-(3-methoxyazetidin-1-yl)bicyclo[3.1.0]hexan-6-yl)-1H-pyrazol-3-yl)-3-(trifluoro-methyl)pyridin-2-amine], for which the affinity corresponds to a Ki of 2.8 nM.
The value for `CC(C)n1nc(-c2cnc(N)c(C(F)(F)F)c2)cc1[C@H]1[C@@H]2C[C@@]3(CCN3C3COC3)C[C@@H]21` [compound 151, 5-(1-isopropyl-5-((1′R,2r,5′S,6′r)-1-(oxetan-3-yl)spiro[azetidine-2,3′-bicyclo[3.1.0]hexan]-6′-yl)-1H-pyrazol-3-yl)-3-(trifluoromethyl) pyridin-2-amine] was 9 nM.
Regarding `CC(C)n1nc(-c2cnc(N)c(OC(F)(F)F)c2)cc1[C@H]1[C@@H]2C[C@H](N3CCN(C)C[C@@H]3C)C[C@@H]21` [compound 240, 5-(5-((1R,3r,5S,6S)-3-((S)-2,4-dimethylpiperazin-1-yl)bicyclo [3.1.0]hexan-6-yl)-1-isopropyl-1H-pyrazol-3-yl)-3-(trifluoromethoxy) pyridin-2-amine], the Ki amounted to 2.1 nM.
For the compound `Nc1ncc(-c2cc([C@H]3[C@@H]4C[C@H](N5CCOCC5)C[C@@H]43)n(C3CCC3)n2)cc1OC(F)F` [compound 134, 5-(1-cyclobutyl-5-((1R,3r,5S,6r)-3-morpholinobicyclo[3.1.0]hexan-6-yl)-1H-pyrazol-3-yl)-3-(difluoromethoxy)pyridin-2-amine], the Ki was 1.58 nM.
Turning to `CC(C)n1nc(-c2cnc(N)c(OC(F)F)c2)cc1[C@H]1[C@@H]2C[C@@H](N3C[C@@H]4C[C@H]3CN4C)C[C@@H]21` [compound 206, 3-(difluoromethoxy)-5-(1-isopropyl-5-((1R,3s,5S,6S)-3-((1S,4S)-5-methyl-2,5-diazabicyclo [2.2.1]heptan-2-yl)bicyclo[3.1.0]hexan-6-yl)-1H-pyrazol-3-yl) pyridin-2-amine], affinity was put at a Ki of 2.1 nM.
Consider `CC(C)n1nc(-c2cnc(N)c(OC(F)(F)F)c2)cc1[C@H]1[C@@H]2C[C@@H](N3CC4(COC4)C3)C[C@@H]21` [compound 58, 5-(5-((1R,3s,5S,6r)-3-(2-oxa-6-azaspiro[3.3]heptan-6-yl)bicyclo [3.1.0]hexan-6-yl)-1-isopropyl-1H-pyrazol-3-yl)-3-(trifluoromethoxy)pyridin-2-amine], for which the Ki was 1.86 nM.
Regarding `CC(C)n1nc(-c2cnc(N)c(OC(F)F)c2)cc1[C@H]1[C@@H]2C[C@@H](N3CCCN(C)CC3)C[C@@H]21` [compound 205, 3-(difluoromethoxy)-5-(1-isopropyl-5-((1R,3s,5S,6r)-3-(4-methyl-1,4-diazepan-1-yl)bicyclo [3.1.0]hexan-6-yl)-1H-pyrazol-3-yl)pyridin-2-amine], affinity was put at a Ki of 2.9 nM.
Turning to `CC(C)n1nc(-c2cnc(N)c(C(F)(F)F)c2)cc1[C@H]1[C@@H]2C[C@@H](N3CCO[C@@H](C)C3)C[C@@H]21` [compound 112, 5-(1-isopropyl-5-((1R,3s,5S,6S)-3-((S)-2-methylmorpholino)bicyclo[3.1.0]hexan-6-yl)-1H-pyrazol-3-yl)-3-(trifluoromethyl) pyridin-2-amine], the affinity corresponds to a Ki of 5.87 nM.
